Data published in patent US4748254A, “Mixed carboxylato platinum (II) complexes” (priority 1984, dated 1988).

Assays:
[1] = tested on: plasmacytoma of mice ADJ/PC6A; settings: cited from earlier work
[2] = tested on: mammal adenocarcinoma Ca 755; assay: Tumor growth inhibition of mammal adenocarcinoma Ca 755; format: in vivo, mice
Procedure: and for a solid tumor--tumor growth inhibition (TGI, %)
O--volume of tumors in the group of treated animals;
K--volume of tumors in the control group were employed.
(§1) The experiments were carried out on line mice and their hybrides of the first generation. […]

lymphoid leukosis L-1210 [3] = assay: Increase of lifespan of mice with lymphoid leukosis L-1210; format: in vivo; settings: 3 mg/kg i.p. in 0.9% NaCl, days of treatment 1-5
plasmacytoma MOPC-406 = assay: Increase of lifespan of mice with plasmacytoma MOPC-406; format: in vivo; settings: for curing of animals with plasmocytoma MOPC-406: in words
Procedure: (§2) As the criteria for the antitumor activity for leukosises and ascytic forms of tumors the increase of the lifespan of treated animals (ILS, %)
(§3) T--average lifespan of treated animals;
(§4) C--average lifespan of control animals;
as §1

hepatoma 22a = assay: Increase of lifespan of mice with grafted hepatoma 22a; format: in vivo
Procedure: as §2, §3, §4, §1

tumors = settings: in words; cited from earlier work
hemocytoblastosis La = assay: Increase of lifespan of mice with hemocytoblastosis La; format: in vivo
Procedure: as §2, §3, §4, §1

lymphoid leukosis L-1210 [4] = assay: Increase of lifespan of mice with lymphoid leukosis L-1210; format: in vivo
Procedure: as §2, §3, §4
The experiments were carried out on line mice and their hybrides of the first generation. […] The compounds were administered to animals intraperitoneally in a 5% solution of glucose once or daily over 5 days within the time limits adopted in experimental studies of corresponding tumors.

[5] = Storage stability and hygroscopicity; format: physicochemical; settings: in words
[6] = cited from earlier work
[7] = cited from earlier work; remark: listed apart in the source
[8] = tested on: graft strains of tumors and leukoses of mice; assay: Antitumor activity, overall statement; format: in vivo; settings: in words
Procedure: The antitumor activity of the compounds according to the present invention has been studied on a number of strains of grafted solid tumors and leukosises of mice: plasmacytoma MOPC-406, lymphoid leukosis L-1210, hemocytoblastosis La, hepatoma 22a, mammal adenocarcinoma Ca 755.
The experiments were carried out on line mice and their hybrides of the first generation. […] The compounds were administered to animals intraperitoneally in a 5% solution of glucose once or daily over 5 days within the time limits adopted in experimental studies of corresponding tumors. […]

[9] = 2 mg/kg i.p. in 0.9% NaCl, days of treatment 2-5
[10] = 5 mg/kg i.p. in 0.9% NaCl, day 3
[11] = 15-25 mg/kg i.p., days of treatment 2-6
[12] = 30 mg/kg i.p., days of treatment 2-6
[13] = 20-40 mg/kg i.p., days of treatment 2-6
[14] = 20-25 mg/kg i.p., days of treatment 2-6
[15] = 20 mg/kg i.p., days of treatment 7-11

N.N.[Cl][Pt][Cl] [DDP, cis-dichlorodiammineplatinum(II), reference compound]
ID90 (dose inhibiting growth of tumors by 90%) ([1]; plasmacytoma ADJ/PC6A, mice): 1.6 mg/kg | Tumor growth inhibition, %, Ca-755 ([2]; 8 mg/kg i.p. in 0.9% NaCl, day 2): 95% | Increase of lifespan, %, L-1210 (lymphoid leukosis L-1210 [3]): 116% | Increase of lifespan, %, MOPC-406 (plasmacytoma MOPC-406; [9]): 140% | number of cured animals / animals employed, MOPC-406 (plasmacytoma MOPC-406; [9]): 0/6 | curing of animals with plasmocytoma MOPC-406 (plasmacytoma MOPC-406): no curing of animals | Increase of lifespan, %, Hepatoma 22a (hepatoma 22a; [10]): 120% | number of cured animals / animals employed, Hepatoma 22a (hepatoma 22a; [10]): 0/6 | curing of animals with hepatoma 22a (hepatoma 22a; in words): no curing of animals | antitumor activity (tumors): high antitumor activity | spectrum of action on diverse tumors (tumors): remarkably wide spectrum of action on diverse tumors | Increase of lifespan, %, La (hemocytoblastosis La; 8 mg/kg i.p. in 0.9% NaCl, day 1): 200%

N.NC1CC1.O=C([O-])CC(=O)[O-].[Pt+2] [Example 1, malonatoammine(cyclopropylamine)platinum(II)]
Tumor growth inhibition, %, Ca-755 [2, 11]: 89% | Increase of lifespan, %, MOPC-406 (plasmacytoma MOPC-406; 60 mg/kg i.p., day 7): 150% | number of cured animals / animals employed, MOPC-406 (plasmacytoma MOPC-406; 60 mg/kg i.p., day 7): 1/6 | Increase of lifespan, %, MOPC-406 (plasmacytoma MOPC-406; [11]): 268% | number of cured animals / animals employed, MOPC-406 (plasmacytoma MOPC-406; [11]): 2/6 | Increase of lifespan, %, MOPC-406 (plasmacytoma MOPC-406; 60-70 mg/kg i.p., day 2): 177% | number of cured animals / animals employed, MOPC-406 (plasmacytoma MOPC-406; 60-70 mg/kg i.p., day 2): 1/6 | curing of animals with plasmocytoma MOPC-406 (plasmacytoma MOPC-406): ensure curing of a certain number of animals (up to 100%) | Increase of lifespan, %, Hepatoma 22a (hepatoma 22a; [11]): 85% | number of cured animals / animals employed, Hepatoma 22a (hepatoma 22a; [11]): 0/6 | Increase of lifespan, %, La (hemocytoblastosis La; [11]): 29% | Increase of lifespan, %, L-1210 (lymphoid leukosis L-1210 [4]; [11]): 39% | Increase of lifespan, %, L-1210 (lymphoid leukosis L-1210 [4]; 60-70 mg/kg i.p., day 2): 48%

N.NC1CCC1.O=C1[O][Pt][O]C(=O)C1O [Example 3, (hydroxymalonato)ammine(cyclobutylamine)platinum(II)]
Tumor growth inhibition, %, Ca-755 ([2]; 20 mg/kg i.p., days of treatment 2-6): 70% | Increase of lifespan, %, L-1210 (lymphoid leukosis L-1210 [4]; 25 mg/kg i.p., days of treatment 2-6): 100% | Increase of lifespan, %, L-1210 (lymphoid leukosis L-1210 [4]; 60 mg/kg i.p., day 2): 71%

[NH2][Pt]1([NH]C2CCCC2)[O]C(=O)CC(=O)[O]1 [Example 6, malonatoammine(cyclopentylamine)platinum(II)]
Tumor growth inhibition, %, Ca-755 [2, 11]: 76% | hygroscopicity [5]: very hygroscopic | Increase of lifespan, %, MOPC-406 (plasmacytoma MOPC-406; 50 mg/kg i.p., day 7): 329% | number of cured animals / animals employed, MOPC-406 (plasmacytoma MOPC-406; 50 mg/kg i.p., day 7): 3/6 | Increase of lifespan, %, MOPC-406 (plasmacytoma MOPC-406; [11]): 286% | number of cured animals / animals employed, MOPC-406 (plasmacytoma MOPC-406; [11]): 3/6 | Increase of lifespan, %, MOPC-406 (plasmacytoma MOPC-406; 40-60 mg/kg i.p., day 2): 300% | number of cured animals / animals employed, MOPC-406 (plasmacytoma MOPC-406; 40-60 mg/kg i.p., day 2): 5/6 | curing of animals with plasmocytoma MOPC-406 (plasmacytoma MOPC-406): ensure curing of a certain number of animals (up to 100%) | Increase of lifespan, %, Hepatoma 22a (hepatoma 22a; [11]): 140% | number of cured animals / animals employed, Hepatoma 22a (hepatoma 22a; [11]): 2/6 | curing of animals with hepatoma 22a (hepatoma 22a; in words): cure a portion of animals | Increase of lifespan, %, La (hemocytoblastosis La; [11]): 21% | Increase of lifespan, %, L-1210 (lymphoid leukosis L-1210 [4]; [11]): 36% | Increase of lifespan, %, L-1210 (lymphoid leukosis L-1210 [4]; 40-60 mg/kg i.p., day 2): 45%

[NH2][Pt]1([NH]C2CCCCC2)[O]C(=O)CCC(=O)[O]1 [Example 15, succinatoammine(cyclohexylamine)platinum(II)]
Tumor growth inhibition, %, Ca-755 [2, 12]: 72% | Increase of lifespan, %, L-1210 (lymphoid leukosis L-1210 [4]; [12]): 108% | Increase of lifespan, %, L-1210 (lymphoid leukosis L-1210 [4]; 150 mg/kg i.p., day 2): 120%

N.NCC1CCCO1.O.O=C1C[C@H](O)C(=O)[O][Pt][O]1 [Example 21, S(-)-malatoammine(tetrahydrofurfurylamine)platinum(II)]
Tumor growth inhibition, %, Ca-755 [2, 13]: 95% | Increase of lifespan, %, MOPC-406 (plasmacytoma MOPC-406; [13]): 280% | number of cured animals / animals employed, MOPC-406 (plasmacytoma MOPC-406; [13]): 3/6 | curing of animals with plasmocytoma MOPC-406 (plasmacytoma MOPC-406): ensure curing of a certain number of animals (up to 100%) | Increase of lifespan, %, Hepatoma 22a (hepatoma 22a; [13]): 340% | number of cured animals / animals employed, Hepatoma 22a (hepatoma 22a; [13]): 2/6 | curing of animals with hepatoma 22a (hepatoma 22a; in words): cure a portion of animals | Increase of lifespan, %, L-1210 (lymphoid leukosis L-1210 [4]; [13]): 120%

[Cl][Pt-2]([Cl])([NH2+]C1CCCC1)[NH2+]C1CCCC1 [cis-[PtCl2 (cyclo-C5 H9 NH2)2]]
solubility in water ([6]; prior art compound, in words): substantially insoluble in water | ID90 (dose inhibiting growth of tumors by 90%) ([1]; plasmacytoma ADJ/PC6A, mice): 2.4 mg/kg | therapeutical index TI=LD50/ID90 ([1]; plasmacytoma ADJ/PC6A, mice): 200 | therapeutic response or side effect ([7]; fine suspensions in sesame oil or aqueous solloids stabilized by polyvinylpyrrolidone): no therapeutic response or a side effect | local irritation ([7]; in vivo): local irritation upon administration of an oily suspension | retention at the spot of the injection ([7]; in vivo): substantially remains at the spot of the injection

N.NC1CCCC1.[Cl][Pt][Cl] [cis-[PtCl2 NH3 (cyclo-C5 H9 NH2)]]
solubility in 0.9% NaCl ([6]; 0.9% NaCl): about 1 mg/ml | toxicity compared with DDP ([1]; in words, versus DDP): slightly more toxic than DDP | LD50 ([1]; mice, plasmacytoma ADJ/PC6A tests): 11.0 mg/kg | ID90 (dose inhibiting growth of tumors by 90%) ([1]; plasmacytoma ADJ/PC6A, mice): 0.5 mg/kg | 90% tumor growth inhibiting dose, times less than that of DDP ([1]; plasmacytoma ADJ/PC6A, versus DDP): 3 times | 90% tumor growth inhibiting dose, times less than that of cis-[PtCl2 (cyclo-C5 H9 NH2)2 ] ([1]; plasmacytoma ADJ/PC6A, versus cis-[PtCl2 (cyclo-C5 H9 NH2)2 ]): ~5 times | advantage over parent compounds with identical ligands (tumors): absence of advantages of this mixed complex as compared to the parent compounds with identical ligands

NC1CCCCC1.NC1CCCCC1.[Cl][Pt][Cl] [complex with cyclohexylamine]
therapeutical index TI=LD50/ID90 ([1]; plasmacytoma ADJ/PC6A, mice): above 267

RS-malatoammine(cyclopentylamine)platinum(II) [Example 5]
Tumor growth inhibition, %, Ca-755 [2, 14]: 95% | Increase of lifespan, %, MOPC-406 (plasmacytoma MOPC-406; [14]): 350% | number of cured animals / animals employed, MOPC-406 (plasmacytoma MOPC-406; [14]): 4/6 | curing of animals with plasmocytoma MOPC-406 (plasmacytoma MOPC-406): ensure curing of a certain number of animals (up to 100%) | Increase of lifespan, %, Hepatoma 22a (hepatoma 22a; [14]): 322% | number of cured animals / animals employed, Hepatoma 22a (hepatoma 22a; [14]): 2/6 | curing of animals with hepatoma 22a (hepatoma 22a; in words): cure a portion of animals | Increase of lifespan, %, L-1210 (lymphoid leukosis L-1210 [4]; [14]): 156%

S(-)malatoammine(cyclopentylamine)platinum(II) [Example 4]
antitumor activity [8]: highest antitumor activity among the compounds according to the present invention | Tumor growth inhibition, %, Ca-755 [2, 11]: 96% | hygroscopicity [5]: hydroscopic | Increase of lifespan, %, MOPC-406 (plasmacytoma MOPC-406; [15]): 356% | number of cured animals / animals employed, MOPC-406 (plasmacytoma MOPC-406; [15]): 3/6 | Increase of lifespan, %, MOPC-406 (plasmacytoma MOPC-406; [11]): 327% | number of cured animals / animals employed, MOPC-406 (plasmacytoma MOPC-406; [11]): 6/6 | Increase of lifespan, %, MOPC-406 (plasmacytoma MOPC-406; 60-80 mg/kg i.p., day 2): 310% | number of cured animals / animals employed, MOPC-406 (plasmacytoma MOPC-406; 60-80 mg/kg i.p., day 2): 5/6 | curing of animals with plasmocytoma MOPC-406 (plasmacytoma MOPC-406): ensure curing of a certain number of animals (up to 100%) | curing of animals with plasmacytoma MOPC-406 (plasmacytoma MOPC-406; optimal doses): up to 100% | Increase of lifespan, %, Hepatoma 22a (hepatoma 22a; [11]): 225% | number of cured animals / animals employed, Hepatoma 22a (hepatoma 22a; [11]): 4/6 | curing of animals with hepatoma 22a (hepatoma 22a; in words): cure a portion of animals | curing of animals with hepatoma 22a (hepatoma 22a; optimal doses): up to 66% | Increase of lifespan, %, La (hemocytoblastosis La; [11]): 113% | lifespan of animals with hemocytoblastosis La (hemocytoblastosis La; in words): considerably extends the lifespan | extension of life span of animals with hemocytoblastosis La (hemocytoblastosis La; optimal doses): 113% | Increase of lifespan, %, L-1210 (lymphoid leukosis L-1210 [4]; [11]): 195% | Increase of lifespan, %, L-1210 (lymphoid leukosis L-1210 [4]; 60-80 mg/kg i.p., day 2): 101% | extension of life span of animals with leukemia L-1210 (lymphoid leukosis L-1210 [4]; optimal doses): 195%
